Laboratory results published in patent publication US11542210B2, “Method of producing a monoammonium phosphate containing fertilizer solution” (Liquigro Holdings (Proprietary) Limited, priority 2016, dated 2023).

Tested on: Maize
Assay: Crop application - vegetative growth (maize): spray application, damage to the plants
Assay type: in vivo
Excerpt: When using MAP technical, it is only possible to spray a maximum of 1 kg P per ha before damage is inflicted on the plants.

With N.O=P(O)(O)O [MAP technical, monoammonium phosphate (technical)] the “maximum that can be sprayed before damage is inflicted on the plants” value was no more than 1 kg P per ha.
